Patent US8633197B2, “Piperidine/piperazine derivatives” (Janssen Pharmaceutica N.V., priority 2007, dated 2014)

What was measured:
human DGAT1 = molecular target: T1, human DGAT1 (Homo sapiens, UniProt O75907); assay: DGAT1 FlashPlate assay: inhibition of DGAT1 activity in membrane preparations; type: biochemical; conditions: IC50 values expressed in M
T1 construct: FLAG (N); made in house; host or cells: SF9 insect cells (pFastBac baculovirus); total cell membranes used
T1 sequence (O75907 1-488): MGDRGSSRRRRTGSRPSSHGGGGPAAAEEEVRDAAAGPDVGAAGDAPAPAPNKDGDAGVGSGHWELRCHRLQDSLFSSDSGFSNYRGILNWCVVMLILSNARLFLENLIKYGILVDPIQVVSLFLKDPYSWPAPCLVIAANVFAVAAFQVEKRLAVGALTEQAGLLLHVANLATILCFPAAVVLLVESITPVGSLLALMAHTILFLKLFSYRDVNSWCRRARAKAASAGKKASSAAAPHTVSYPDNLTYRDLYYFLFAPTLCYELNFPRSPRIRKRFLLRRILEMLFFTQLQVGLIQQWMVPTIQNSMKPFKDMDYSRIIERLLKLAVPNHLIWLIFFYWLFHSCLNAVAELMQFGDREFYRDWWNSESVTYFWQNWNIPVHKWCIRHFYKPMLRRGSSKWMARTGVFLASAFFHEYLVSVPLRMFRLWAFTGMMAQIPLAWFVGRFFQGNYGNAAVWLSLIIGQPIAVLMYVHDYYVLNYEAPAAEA
Source text: The inhibiting activity of the present compounds on DGAT1 activity was screened in a single well procedure assay using DGAT1 comprising membrane preparations and DGAT1 substrate comprising micelles and determining formed radio-active triacylglycerol coming in close proximity of a flashplate surface by radio luminescence.
Said assay is described in full detail in WO2006/067071, the content of which is incorporated herein by reference.
By DGAT1 activity is meant the transfer of coenzyme A activated fatty acids to the 3-position of 1,2-diacylglycerols, thus forming a triglyceride molecule, by enzyme DGAT1.
human DGAT1 (NM012079.2) was cloned into the pFastBac vector, containing translation start, a FLAG-tag at the N-terminus as described in literature and a viral Kozak sequence (AAX) preceding the ATG to improve expression in insect cells. Expression was done as described in literature (Cases, S., Smith, S. J., Zheng, Y., Myers H. M., Lear, S. R., Sande, E., Novak, S., Collins, C., Welch, C. B., Lusis, A. J., Erickson, S. K. and Farese, R. V. (1998) Proc. Natl. Acad. Sci. USA 95, 13018-13023.) using SF9 cells.
72 h transfected SF9 cells were collected by centrifugation (13000 rpm-15 min-4° C.) and lysed in 2×500 ml lysisbuffer (0.1M Sucrose, 50 mM KCl, 40 mM KH2PO4, 30 mM EDTA pH 7.2. Cells were homogenized by cell disruptor. After centrifugation 1380 rpm-15 min-4° C. (SN discarded), pellet was resuspended in 500 ml lysisbuffer and total cell membranes collected by ultracentrifugation at 34000 rpm (100 000 g) for 60 min (4° C.). The collected membranes were resuspended in lysis buffer, divided in aliquots and stored with 10% glycerol at −80° C. until use.
Add 1 ml dioleoyl-sn-glycerol (10 mg/ml) to 10 ml of L-α-phosphatidylcholine (1 mg/ml) and 10 ml of L-α-phosphatidyl-L-serine (1 mg/ml) in a thick glass recipient. Evaporate under nitrogen and put on ice for 15 minutes. Reconstitute in 10 ml Tris/HCl (10 mM, pH 7.4) by sonication on ice. The sonification process consists of sonification cycles of 10 seconds in the sonification bath followed by 10 seconds cool down on ice and repeating this sonification cycle till a homogeneous solution is obtained (takes about 15 minutes). The thus obtained micelles are stored at −20° C. till later use and contain DAG at a final concentration of 1.61 mM.
• a) Assaybuffer • 50 mM Tris-HCl (pH 7.4), 150 mM MgCl2, 1 mM EDTA, 0.2% BSA. • b) N-ethylmaleimide, 5M • Dissolve 5 g into a final volume of 8 ml DMSO 100% and store at −20° C. in aliquots till later use. • c) Substrate mix (for 1 384 well plate=3840 μl) • 612 μl micelles stock (51 μM final) • 16.6 μl oleoylCoA 9.7 mM • 23 μl [^3H]-oleoylCoA (49 Ci/mmol, 500 μCi/ml) 3188.4 μl Tris pH 7.4, 10 mM • d) Enzyme mix (for 1 384 well plate=3520 μl) (5 μg/ml) • Add 11.73 μl of DGAT membrane stock (1500 μg/ml stock) to 3508 μl assay buffer. • e) Stop mix (for 1 384 well plate=7.68 ml) (250 mM) • Add 384 μl of N-ethylmaleimide (5M) to 3.456 ml DMSO 100%, and further dilute 3.84 ml of said solution with 3.84 ml DMSO 10%. Method
DGAT activity in membrane preparations was assayed in 50 mM Tris-HCl (pH 7.4), 150 mM MgCl2, 1 mM EDTA and 0.2% BSA, containing 50 μM DAG, […] PC/PS and 8.4 μM [^3H]-oleoylCoA (at a specific activity of 30 nCi/well) in a final volume of 50 μl in 384-well format using the red shifted Basic Image FlashPlate™ (Perkin Elmer Cat. No. SMP400).
In detail, 10 μl enzyme mix and 10 μl substrate mix were added to 30 μl of assay buffer, optionally in the presence of 1 μl DMSO (blank and controls) or 1 μl of the compound to be tested. This reaction mixture was incubated for 120 minutes at 37° C. and the enzymatic reaction stopped by adding 20 μl of the stop mix. The plates were sealed and the vesicles allowed to settle overnight at room temperature. Plates were centrifuged for 5 minutes at 1500 rpm and measured in Leadseeker. […]

Row | Structure (SMILES) | pIC50 (mean) (human DGAT1) | melting point [°C] | IC50 (human DGAT1) [nM]
1 | N#C/N=C(/Nc1ccccc1)N1CCN(c2ccc(NC(=O)CCCc3ccccc3)cc2)CC1 [Compound 5] |  |  | 1350
2 | Cc1cccc(Cl)c1N/C(=N/C#N)N1CCN(c2ccc(NC(=O)c3ccc(N4CCN(C)CC4)cc3)cc2)CC1 [Compound 17] | 6.64 | 285.1 | 
3 | CN1CCN(c2ccc(C(=O)Nc3ccc(N4CCN(/C(=N\C#N)Nc5ccccc5Cl)CC4)cc3)cc2)CC1 [Compound 18] | 6.10 | 244.2 | 
4 | N#C/N=C(/Nc1c(Cl)cccc1Cl)N1CCN(c2ccc(NC(=O)CCCc3ccccc3)cc2)CC1 [Compound 1] |  |  | 9.12
5 | COCCN1CCN(C(=O)c2cc(Cl)c(N/C(=N/C#N)N3CCN(c4ccc(NC(=O)c5ccccc5N5CCN(C)CC5)cc4)CC3)c(Cl)c2)CC1 [Compound 19] | 5.54 | 254.2 | 
6 | Cc1cc(C)n(-c2cccc(C(=O)Nc3ccc(N4CCN(/C(=N\C#N)Nc5c(Cl)cc(CN6CCCC6)cc5Cl)CC4)cc3)c2)n1 [Compound 12] | 7.84 |  | 
7 | N#C/N=C(\Oc1ccccc1)N1CCN(c2ccc(NC(=O)CCCc3ccccc3)cc2)CC1 [Compound 2] |  |  | 1820
8 | CN1CCN(C(=O)c2cc(Cl)c(N/C(=N/C#N)N3CCN(c4ccc(NC(=O)c5cccc(N6CCCC6)c5)cc4)CC3)c(Cl)c2)CC1 [Compound 7] |  |  | 5.25
9 | COCCN1CCN(C(=O)c2cc(Cl)c(N/C(=N/C#N)N3CCN(c4ccc(NC(=O)Cc5ccc(OC)cc5)cc4)CC3)c(Cl)c2)CC1 [Compound 10] | 8.17 | 205.3 | 
10 | Cc1ccccc1-c1cccc(C(=O)Nc2ccc(N3CCN(/C(=N\C#N)Nc4c(Cl)cc(CN5CCCC5)cc4Cl)CC3)cc2)c1 [Compound 6] |  | 217.1 | 2.4
11 | COc1ccc(CC(=O)Nc2ccc(N3CCN(/C(=N\C#N)Nc4c(C)cccc4Cl)CC3)cc2)cc1 [Compound 8] | 8.23 | 206.9 | 
12 | N#C/N=C(/Nc1ccccc1Cl)N1CCN(c2ccc(NC(=O)CCCc3ccccc3)cc2)CC1 [Compound 3] |  |  | 33.9
13 | CC(=O)OCC(=O)Nc1ccc(N2CCN(/C(=N\C#N)Nc3c(F)cccc3Cl)CC2)cc1 [Compound 16] | 6.79 | 209 | 

Results, then the compound that gave them:

Row | pIC50 (mean) (human DGAT1) | melting point [°C] | IC50 (human DGAT1) [nM] | Structure (SMILES)
14 | 7.20 | 211.9 |  | COCCN1CCN(C(=O)c2cc(Cl)c(N/C(=N/C#N)N3CCN(c4ccc(NC(=O)CNc5ccccc5)cc4)CC3)c(Cl)c2)CC1 [Compound 15]
15 |  |  | 36.3 | Cc1ccccc1N/C(=N/C#N)N1CCN(c2ccc(NC(=O)CCCc3ccccc3)cc2)CC1 [Compound 4]
16 | 7.58 | 208.7 |  | N#C/N=C(/Nc1ccc(C(=O)O)cc1Cl)N1CCN(c2ccc(NC(=O)CCCc3ccccc3)cc2)CC1 [Compound 13]
17 |  | 220.3 | 6.31 | COC(=O)c1ccc(N/C(=N/C#N)N2CCN(c3ccc(NC(=O)c4cccc(N5CCCC5)c4)cc3)CC2)c(Cl)c1 [Compound 9]
18 | 8.16 | 222.4 |  | COc1ccc(CC(=O)Nc2ccc(N3CCN(/C(=N\C#N)Nc4c(Cl)cc(CN5CCCC5)cc4Cl)CC3)cc2)cc1 [Compound 11]
19 | 7.24 | 191.8 |  | CCCCCCC(=O)Nc1ccc(N2CCN(/C(=N\C#N)Nc3ccc(C(=O)OC)cc3Cl)CC2)cc1 [Compound 14]
